93 compounds from ChEMBL document CHEMBL3507680, “University of Dundee, Gates Library screen for HepG2 cell viability” can be followed below.

This series in a line: Human HepG2 cell viability assay in 384 well format. Details: dose 125 nL, time 70.5 hour; concentration not given beside the values. The following applies: HepG2 cells, read-out: Inhibition. In kind it is toxicity, cell-based.

The structures appear in SMILES notation.

Turning to `CCC1(C)Cc2ccccc2-c2nc(NCCO)nc(O)c21` (stereo not drawn), the cytotoxicity at 70.5 h was -26.4%.

In the case of `O=c1[nH]c(NCCCO)nc2c1C1(CCCC1)Cc1ccccc1-2`, the cytotoxicity at 70.5 h is -23.5%.

For `O=c1[nH]c(NCCO)nc2c1C1(CCCC1)Cc1ccccc1-2`, the cytotoxicity at 70.5 h was 18.4%.

As to `CN(C)CC(=O)N1CCc2ncnc(-c3ccoc3)c2CC1`, the cytotoxicity at 70.5 h was -0.0529%.

Consider `CN1C(=O)CCC12CCCN(C(=O)c1ccoc1)C2` (stereo not drawn), for which the cytotoxicity at 70.5 h is -1.96%.

As to `Cc1cnc(CNC(=O)c2cc3c(s2)CCN3S(C)(=O)=O)cn1`, the cytotoxicity at 70.5 h was -0.66%.

As for `CS(=O)(=O)N1CCc2c(nnn2CC2CC2)C1COCC1CC1` (stereo not drawn), the cytotoxicity at 70.5 h was -1.97%.

On to `CNC(=O)NC1CC2(CCNCC2)c2ccc(C)cc21` (stereo not drawn), for which the cytotoxicity at 70.5 h was 18.2%.

For `CC(C)CN1C(=O)CO[C@@H]2CN(C(=O)N(C)C)C[C@H]21`, the cytotoxicity at 70.5 h is 2.11%.

With `O=C(NCCc1ccccc1)N1CC[C@@H]2CNS(=O)(=O)[C@@H]2CC1`, the cytotoxicity at 70.5 h turned out to be 0.679%.

For the compound `CC(C)CN1C(=O)CO[C@@H]2CN(C(=O)CC(F)(F)F)C[C@H]21`, the cytotoxicity at 70.5 h was -1.53%.

Take `CC(C)CN1C(=O)CO[C@@H]2CN(C(=O)N3CCOCC3)C[C@H]21`: the cytotoxicity at 70.5 h is -2.58%.

Consider `CC(C)CN1C(=O)CO[C@@H]2CN(C(=O)[C@H]3CCCO3)C[C@H]21`, for which the cytotoxicity at 70.5 h is -1.2%.

With `CCN1C(=O)CC[C@@H]2[C@H]1CCN2C(=O)Cc1cccc(OC)c1`, the cytotoxicity at 70.5 h is 0.943%.

As to `COc1cccc(CN2CCC3(CCN(c4ncc(C)cn4)C3)C2=O)c1` (stereo not drawn), the cytotoxicity at 70.5 h was -0.0299%.

As to `Cc1ccc(C(=O)N2CC[C@@H]3[C@H]2CCC(=O)N3CC2CC2)o1`, the cytotoxicity at 70.5 h was -0.589%.

Take `COC[C@]12COC[C@H]1CN(S(=O)(=O)c1cccnc1)C2`: the cytotoxicity at 70.5 h was -13%.

For `CC(C)N1CCN(C)C2(CCN(C(=O)c3ccnnc3)CC2)C1=O`, the cytotoxicity at 70.5 h was -4.95%.

As to `CS(=O)(=O)N1CCCC12CCCN(c1nccs1)C2` (stereo not drawn), the cytotoxicity at 70.5 h is -3.55%.

As for `CC(C)C(=O)N1CC[C@@H]2CN(Cc3ccncc3)S(=O)(=O)[C@@H]2CC1`, the cytotoxicity at 70.5 h was -3.99%.

Take `O=C(c1cc[nH]n1)N1CC[C@@H]2CN(Cc3cccnc3)S(=O)(=O)[C@@H]2CC1`: the cytotoxicity at 70.5 h was -1.58%.

As for `CCc1cnc(N2CC[C@@H]3CN(C(=O)c4ccco4)CCO[C@@H]3C2)nc1`, the cytotoxicity at 70.5 h is -10.8%.

Consider `CN(C)CCNC(=O)c1noc2c1CN(C(=O)N(C)C)CC2`, for which the cytotoxicity at 70.5 h is -6.62%.

`O=C(c1ccnnc1)N1CCC2(CCN(c3ccsc3)C2=O)C1` (stereo not drawn): the cytotoxicity at 70.5 h was -0.84%.

`CO[C@@H]1CC[C@H]2[C@H]1OCCN2C(=O)c1ccco1`: the cytotoxicity at 70.5 h is -1.75%.

Consider `Cn1nc(C#N)c2c1CN(C(=O)c1ccnnc1)CCC2`, for which the cytotoxicity at 70.5 h was determined as 0.526%.

For `Cc1nc(CN2CCO[C@H]3CN(C(=O)Cc4cccs4)C[C@H]32)cs1`, the cytotoxicity at 70.5 h is -3.66%.

As to `O=C1NCC[C@]12CN(Cc1ccsc1)C[C@H]2c1ccccc1`, the cytotoxicity at 70.5 h was -4.93%.

With `CCO[C@@H]1CC[C@H]2[C@H]1OCCN2C(=O)c1ccc(C)o1`, the cytotoxicity at 70.5 h is -4.6%.

For the compound `Cc1ccc(CC(=O)N2CCn3cc(Cn4cncn4)nc3C2)cc1`, the cytotoxicity at 70.5 h is -7.66%.

As for `CO[C@H]1CC[C@H]2[C@H]1OCCN2C(=O)c1ccc(C)nc1`, the cytotoxicity at 70.5 h was -2.48%.

`Cc1ccc(C(=O)N2C[C@@H]3COC[C@]3(COCc3cccnc3)C2)cn1`: the cytotoxicity at 70.5 h is -6.21%.

On to `Cc1nc(C(=O)N2C[C@@H]3COC[C@]3(COCc3cccnc3)C2)cs1`, for which the cytotoxicity at 70.5 h was -6.56%.

Consider `CCn1c(SCC(=O)N2CCOCC2)nc2cc(C)[nH]c2c1=O`, for which the cytotoxicity at 70.5 h stood at 0.779%.

For the compound `Cc1cc2nc(SCC(=O)N3CCCCC3)n(C)c(=O)c2[nH]1`, the cytotoxicity at 70.5 h was 19.2%.

Turning to `Cc1cc2nc(SCC(=O)N3CCOCC3)n(C(C)C)c(=O)c2[nH]1`, the cytotoxicity at 70.5 h is -5.42%.

`COc1ccc(N2CCN(CC(O)c3cc(C)ccc3C)CC2)cc1` (stereo not drawn): the cytotoxicity at 70.5 h was -14.7%.

As to `OCCCNc1nc(O)c2c(n1)-c1ccccc1CC21CCCCC1`, the cytotoxicity at 70.5 h was -9.73%.

For `COc1ccccc1CCNC(=O)CC1(Cn2cnnn2)CCCCC1`, the cytotoxicity at 70.5 h is -20.4%.

For the compound `CC(C)c1ccc(NC(=O)Cn2cc(I)cn2)cc1`, the cytotoxicity at 70.5 h is -24.1%.

`CC(C)CNC(=O)CC1(Cn2cnnn2)CCCCC1`: the cytotoxicity at 70.5 h was -12.5%.

Take `COc1cccc2c1ccn2CC(=O)N1CCCC(C(=O)O)C1` (stereo not drawn): the cytotoxicity at 70.5 h stood at 21.4%.

Turning to `COc1ccc(C(=O)COc2coc(CN3CCCCC3)cc2=O)cc1`, the cytotoxicity at 70.5 h is -5.06%.

For the compound `COc1cccc(C(=O)Oc2cc(=O)n3cccc(C)c3n2)c1`, the cytotoxicity at 70.5 h was -24.8%.

As for `CCCOc1ccc(C(=O)Oc2cc(=O)n3cccc(C)c3n2)cc1`, the cytotoxicity at 70.5 h is -0.525%.

`Cc1ccc(C(=O)Oc2cc(=O)n3cccc(C)c3n2)cc1`: the cytotoxicity at 70.5 h amounted to 15.3%.

For `Cc1cccn2c(=O)cc(OC(=O)c3ccc(OC(C)C)cc3)nc12`, the cytotoxicity at 70.5 h is -14.3%.

With `COCCNC(=O)Cn1c(-c2ccc(Cl)cc2)nc(C)c(CCO)c1=O`, the cytotoxicity at 70.5 h came out at 3.28%.

Turning to `CC/N=c1\nc(NCC)nc2n1C(O)(Nc1ccc(C)cc1C)CS2` (stereo not drawn), the cytotoxicity at 70.5 h is 4.88%.

For the compound `CCOc1cccc2c1OCC(=O)N(c1ccc3c(c1)OCO3)C2`, the cytotoxicity at 70.5 h is 14.7%.

Turning to `COCCCNc1c(C#N)c2c(c3nncn13)CN(C)CC2`, the cytotoxicity at 70.5 h is -28.4%.

In the case of `CCOc1ccc(Br)cc1C1CCCCN1` (stereo not drawn), the cytotoxicity at 70.5 h was -12.6%.

Take `CCCC(=O)N1CC[C@@H]2[C@H](CC1)N(Cc1cccc(C)n1)CCS2(=O)=O`: the cytotoxicity at 70.5 h is -2.09%.

As for `N#Cc1ccc(N2CCC3(CC2)CC(Oc2cccnc2)CO3)cc1` (stereo not drawn), the cytotoxicity at 70.5 h came to 9.42%.

On to `N#Cc1cccc(CN2CC3(CCCCN3c3cncnc3)CC2=O)c1` (stereo not drawn), for which the cytotoxicity at 70.5 h was -0.331%.

With `Cc1cccc(CN2Cc3[nH]nc(COCCO)c3C2)n1`, the cytotoxicity at 70.5 h is -0.969%.

As to `Cn1cccc1C(=O)N1CC[C@H]2[C@H]1CCN2CC1CCOCC1`, the cytotoxicity at 70.5 h is -0.0713%.

Regarding `Cc1noc(C)c1CN1C[C@@H]2CN(C(=O)c3cnccn3)C[C@@H]2C1`, the cytotoxicity at 70.5 h was 0.0874%.

Consider `CN(C)C(=O)C1CN(Cc2ccsc2)Cc2ccnn2C1` (stereo not drawn), for which the cytotoxicity at 70.5 h amounted to 12.7%.

With `Cn1cccc1C(=O)N1CC[C@H]2[C@H]1CCN2CC1CC1`, the cytotoxicity at 70.5 h is -0.69%.

Turning to `c1cncc(COC2COC3(CCN(c4cnccn4)CC3)C2)c1` (stereo not drawn), the cytotoxicity at 70.5 h came out at 15.1%.

`CNC(=O)COC1COC2(CCN(c3ncccn3)CC2)C1` (stereo not drawn): the cytotoxicity at 70.5 h is -1.44%.

Consider `CC(C)NC(=O)N1CCc2onc(C(=O)NCCN(C)C)c2C1`, for which the cytotoxicity at 70.5 h is -2.85%.

With `CC(C)C(=O)N1CCc2onc(C(=O)NCCN(C)C)c2C1`, the cytotoxicity at 70.5 h is -5.11%.

Consider `O=C(c1cc[nH]n1)N1CC[C@@H]2CN(Cc3ccncc3)S(=O)(=O)[C@@H]2CC1`, for which the cytotoxicity at 70.5 h was -5.13%.

For `COc1cc(N2C[C@@H]3COC[C@]3(C(=O)NC3CC(F)(F)C3)C2)ncn1`, the cytotoxicity at 70.5 h is -4.63%.

Turning to `CNC(=O)c1cc2c(nc1N(C)C)CCN(S(=O)(=O)N(C)C)CC2`, the cytotoxicity at 70.5 h is 4.98%.

`COc1ccc2c(c1)C1(CCN(Cc3cnn(C)c3)CC1)N(C)CC2`: the cytotoxicity at 70.5 h is -0.704%.

In the case of `COCC1CC2(CCN(C(=O)c3ccc(C)nc3)CC2)CO1` (stereo not drawn), the cytotoxicity at 70.5 h is -5.4%.

Regarding `Cc1noc([C@@H]2C[C@@H]3CCN(CC4CCOCC4)C[C@H]3O2)n1`, the cytotoxicity at 70.5 h is -4.62%.

For `Cc1ccc(N2CC3(COCCN(Cc4cnn(C)c4)C3)OCC2=O)s1` (stereo not drawn), the cytotoxicity at 70.5 h amounted to 0.295%.

`c1ccc(CN2C[C@@H]3COC[C@]3(COCC3CCOCC3)C2)nc1`: the cytotoxicity at 70.5 h was found to be 1.04%.

As to `Cc1nc2c(c(NC(C)C)n1)CCN(Cc1cccnc1)CC2`, the cytotoxicity at 70.5 h is 4.65%.

Turning to `CC(C)NC(=O)C1CN(Cc2ccsc2)Cc2ccnn2C1` (stereo not drawn), the cytotoxicity at 70.5 h came out at 1.63%.

In the case of `Cc1ccsc1CN1CCC2(CC1)CC(OCc1cccnc1)CO2` (stereo not drawn), the cytotoxicity at 70.5 h is -0.0736%.

As for `Fc1cnc(N2CCC3(CC2)CC(OCc2cccnc2)CO3)nc1` (stereo not drawn), the cytotoxicity at 70.5 h is -0.216%.

For the compound `Cc1cnc(N2CCC3(CC2)CC3CN(C)Cc2cccnc2)nc1` (stereo not drawn), the cytotoxicity at 70.5 h turned out to be 2.52%.

In the case of `c1csc(CN2CCC3(CC2)CCN(CC2CCOCC2)C3)n1`, the cytotoxicity at 70.5 h was 0.161%.

Take `Cc1nc(CN2C[C@@H]3CCCO[C@@H]3[C@H](N(C)C(C)C)C2)cs1`: the cytotoxicity at 70.5 h was -1.04%.

As for `COCCN1C(=O)CC[C@]12CC[C@@H](NCc1cccnc1OC)CC2`, the cytotoxicity at 70.5 h is -2.58%.

Take `c1csc(CN2CCC3(COCCN(CC4CC4)C3)C2)n1` (stereo not drawn): the cytotoxicity at 70.5 h was -3.37%.

Consider `O=C(c1ccncc1)N1CC[C@@H]2[C@@H](CC1)OCCN2c1cccnc1`, for which the cytotoxicity at 70.5 h is -7.36%.

For the compound `CO[C@H]1CCN(c2ncc(F)cn2)[C@@H]2CN(Cc3ccco3)C[C@H]12`, the cytotoxicity at 70.5 h was -6.95%.

On to `CN1C[C@@H]2CN(Cc3ccsc3)CCC[C@]2(C(=O)O)C1`, for which the cytotoxicity at 70.5 h was -2.55%.

As for `CCOC(=O)[C@]12CCCN(Cc3ccsc3)C[C@H]1CN(CCOC)C2`, the cytotoxicity at 70.5 h was -5.12%.

Turning to `CNC(=O)c1cc2c(nc1N(C)C)CCN(C)CC2`, the cytotoxicity at 70.5 h was -2.14%.

As to `O=S(=O)(NCC1OCCc2cn(Cc3ccccn3)nc21)C1CC1` (stereo not drawn), the cytotoxicity at 70.5 h is -0.93%.

For the compound `CCOC(=O)[C@]12CCCN(Cc3nccs3)C[C@H]1CN(CC(C)C)C2`, the cytotoxicity at 70.5 h is -3.1%.

Take `CN(Cc1cccnc1)CC1CC12CCN(c1nncs1)CC2` (stereo not drawn): the cytotoxicity at 70.5 h was -12.3%.

Turning to `c1ccc(Cn2cc3c(n2)C(CNCC2CCOCC2)OCC3)nc1` (stereo not drawn), the cytotoxicity at 70.5 h was -1.54%.

Take `COc1ncccc1CN1CC[C@H]2[C@H]1CCN2CCN(C)C`: the cytotoxicity at 70.5 h is -1.63%.

Take `CCOc1ccc(Br)cc1C1CCCN1` (stereo not drawn): the cytotoxicity at 70.5 h was 18.6%.

On to `Cc1ccc(C(=O)CN(C2=NCCCCC2)c2ccccc2)cc1`, for which the cytotoxicity at 70.5 h was -23.6%.
